Reference: the supplement of paper PMC10307832

Assays:
Assay in all cases: relative viability (nuclei count vs DMSO), 5 days (fraction); higher = more cells survive
[1] = compound: Nc1ncn([C@H]2C[C@H](O)[C@@H](CO)O2)c(=O)n1 [Decitabine] + CS(=O)(=O)CCNCc1ccc(-c2ccc3ncnc(Nc4ccc(OCc5cccc(F)c5)c(Cl)c4)c3c2)o1 [Lapatinib] (partner 2 µM)
Outline: (§1)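 Lung cancer cell lines, seeded in 1536-well plates, were treated the following day by pin tool with a single drug or with five library-drug doses (not always all listed) in √10 steps on top of a fixed anchor-drug dose. Cells were fixed and nuclei stained in one step after 5 days, and nuclei were counted. Relative viability is the nuclei count for treated wells divided by that for vehicle wells, reported as medians of duplicate plates.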

[2] = compound: O=C(C[C@H]1NCCC[C@@H]1O)Cn1cnc2cc(Br)c(Cl)cc2c1=O (racemic) [Halofuginone] + C[C@]1(O)C[C@@H](c2nc(-c3ccc4ccc(-c5ccccc5)nc4c3)c3c(N)nccn32)C1 [Linsitinib] (partner 1 µM)
Outline: as §1

[3] = compound: COc1cc2c(Oc3ccc4[nH]c(C)cc4c3F)ncnc2cc1OCCCN1CCCC1 [Cediranib] + Cc1nc(NC(=O)N2CCC[C@H]2C(N)=O)sc1-c1ccnc(C(C)(C)C(F)(F)F)c1 [Alpelisib] (partner 2 µM)
Outline: as §1

[4] = compound: COc1cc2c(Oc3ccc4[nH]c(C)cc4c3F)ncnc2cc1OCCCN1CCCC1 [Cediranib] + N=C(N)NC(=N)NCCc1ccccc1 [Phenformin] (partner 250 µM)
Outline: as §1

| Cell Line | relative viability ([1]; first compound 0.04 µM) | relative viability ([1]; first compound 0.1265 µM) | relative viability ([1]; first compound 0.4 µM) | relative viability ([1]; first compound 1.265 µM) | relative viability ([1]; first compound 4 µM) | relative viability ([2]; first compound 0.001 µM) | relative viability ([2]; first compound 0.003162 µM) | relative viability ([2]; first compound 0.01 µM) | relative viability ([2]; first compound 0.03162 µM) | relative viability ([2]; first compound 0.1 µM) | relative viability ([3]; first compound 0.04 µM) | relative viability ([3]; first compound 0.1265 µM) | relative viability ([3]; first compound 0.4 µM) | relative viability ([3]; first compound 1.265 µM) | relative viability ([3]; first compound 4 µM) | relative viability ([4]; first compound 0.04 µM) | relative viability ([4]; first compound 0.4 µM) | relative viability ([4]; first compound 1.265 µM) | relative viability ([4]; first compound 4 µM) | relative viability ([4]; first compound 0.1265 µM) |
| --- | --- | --- | --- | --- | --- | --- | --- | --- | --- | --- | --- | --- | --- | --- | --- | --- | --- | --- | --- | --- |
| H3255 | 0.226 | 0.193 | 0.201 | 0.164 | 0.205 | 0.913 | 0.952 | 0.876 | 0.941 | 0.805 | 0.785 | 0.754 | 0.691 | 0.622 | 0.61 | 0.404 | 0.337 | 0.373 | 0.312 |  |
| HCC-78 | 0.819 | 0.862 | 0.46 | 0.411 | 0.388 | 0.479 | 0.579 | 0.484 | 0.706 | 0.312 | 0.361 | 0.379 | 0.323 | 0.386 | 0.287 | 0.712 | 0.649 | 0.607 | 0.718 | 0.709 |
| EBC-1 | 0.2 | 0.163 | 0.162 | 0.195 | 0.152 | 0.959 | 1.07 | 0.784 | 0.656 | 0.251 | 0.857 | 1.01 | 0.762 | 0.719 | 1.02 |  |  |  |  |  |
| NCI-H2405 | 0.942 | 0.904 | 0.679 | 0.553 | 0.434 | 0.991 | 1.05 | 1.01 | 0.906 | 0.69 | 0.815 | 1.07 | 0.631 | 0.77 | 0.758 | 0.358 | 0.378 | 0.38 | 0.368 | 0.422 |
| A549 | 0.898 | 0.843 | 0.49 | 0.305 | 0.19 | 0.653 | 0.556 | 0.612 | 0.559 | 0.286 | 0.698 | 0.947 | 0.654 | 0.701 | 0.869 | 0.135 | 0.211 | 0.153 | 0.212 | 0.121 |
| NCI-H3122 | 1.05 | 1.03 | 1.02 | 0.816 | 0.783 | 1.01 | 1.04 | 0.993 | 0.952 | 0.968 | 0.894 | 1.06 | 0.731 | 0.852 | 0.906 | 0.374 | 0.364 | 0.36 | 0.363 |  |
| NCI-H1563 | 0.922 | 1.02 | 0.87 | 1.07 | 0.8 | 1.3 | 1.3 | 0.963 | 0.636 | 0.603 | 0.988 | 0.898 | 0.967 | 0.949 | 0.761 | 0.63 | 0.676 | 0.651 | 0.665 | 0.851 |
| HCC-44 | 0.84 | 1 | 0.298 | 0.661 | 0.51 | 0.67 | 0.678 | 0.594 | 0.682 | 0.341 | 0.754 |  | 0.731 | 0.784 | 0.898 | 0.195 | 0.241 | 0.224 | 0.201 |  |
| PC-3 [JPC-3] |  | 0.467 | 0.269 | 0.421 | 0.383 | 0.981 | 0.987 | 0.911 | 1.01 | 0.941 | 0.953 | 0.976 | 0.998 | 1.02 | 0.97 | 0.462 | 0.489 | 0.472 | 0.468 | 0.498 |
